In US20250017888A1, “COMPOUNDS FOR TREATING DISEASES ASSOCIATED WITH HYALURONAN OVERPRODUCTION” (THE ROYAL VETERINARY COLLEGE, priority 2021, published 2025):
Where two headings read alike, the source gives them in different places.

Key:
Format in all cases: cell-based
[1] = system: chondrosarcoma cells (SW1353); test: Alamar blue staining of chondrosarcoma; conditions: Homo sapiens
Protocol: (§1) The hyaluronan synthase activity (Prehm, P. and Schumacher, U., Biochem. Pharmacol. 2004, 68, 1401-1410), the cytotoxicity of the drugs (O'Brien, J. et al., Eur. J. Biochem. 2000, 267, 5421-5426), proteoglycan synthesis rate, hyaluronan (Prehm, P. J. Rheumatol., 2005, 32, 690-696) and proteoglycan (Bjornsson, S. Anal. Biochem. 1993, 210, 282-291) were determined as described. The effect of the prenylflavonoids on the MRP5 export rate was measured with fluorescein diacetate as described (Schulz, T., Schumacher, U., and Prehm, P., J Biol. Chem., 2007, 282, 20999-21004). The determination of the IC50 values on the phosphodiesterase 5 was performed according to the instructions of BPS Bioscience. The culture of bovine chondrocytes in alginate beads and of explants of bovine cartilage was described previously (Deiters, B. and Prehm, P. Arthritis Res. Ther., 2008, 10, R8; Prehm, P. J. Rheumatol. 2005, 32, 690-696). Osteoarthritic reactions were induced in chondrocytes growing in alginate beads by incubation with medium containing 10 ng/ml of II-17 for 6 days, and in cartilage explants with 10 ng/ml of II-17 and 5 ng/ml of II-1α. The supernatants were withdrawn and stored at −20° C. for later analysis. The explants were weighed and extracted with 1 ml of 4 M guanidinium-HCl for 72 hours at 4° C. The proteoglycan concentrations were determined in the extracts.
Chondrosarcoma cells (SW1353 from the American Type Culture Collection) were grown in Dulbecco's medium supplemented with streptomycin/penicillin (100 units of each/ml), 10% foetal calf serum or in serum free Quantum medium supplemented with streptomycin/penicillin (100 units of each/ml), kanamycin (100 units/ml).

[2] = Alamar blue toxicity assay (FIG. 1); conditions: below concentrations of 100 μM
Protocol: as §1
The toxicity was determined by the Alamar blue assay.

chondrosarcoma cells [3] = test: Uptake of flavonoids into chondrosarcoma cells by intracellular fluorescence
Protocol: Confluent monolayers of chondrosarcoma cells on 96 well microtiter plates were incubated with 100 μM solutions of flavonoids in serum-free Quantum medium. Changes in fluorescence were monitored from the bottom of the wells at excitation and emission wavelengths of 340 nm and 450 nm for xanthohumol and at 440 nm and 530 nm for quercetin, respectively.
Flavonoids are weakly fluorescent in aqueous buffer, but greatly enhance the fluorescence in the presence of proteins (Sengupta, B. and Sengupta, P. K., Biochem. Biophys. Res. Commun., 2002, 299, 400-403). This property was used to follow the uptake of quercetin and xanthohumol into chondrosarcoma cells.

[4] = system: hyaluronan export from chondrosarcoma cells; test: Inhibition of hyaluronan export / production in chondrosarcoma cells; conditions: for inhibition of hyaluronan export: culture supernatant after 2 days, comparison with parent compound, particularly below 3 μM
Protocol: as §1
Chondrosarcoma cells were plated on a 96 well microtiter plate and in the presence of increasing flavonoid concentrations. After 2 days the concentration of hyaluronan was determined in the culture supernatant.

fibroblasts = test: Alamar blue staining of fibroblasts; conditions: Fibroblast
Protocol: as §1

chondrosarcoma cells [5] = test: Inhibition of chondrosarcoma cell growth (Coulter counter); conditions: cell numbers after 2 days
Protocol: Chondrosarcoma cells were plated on a 24 well microtiter plate and in the presence of increasing flavonoid concentrations. After 2 days the cells were trypsinized and the cell numbers were determined in a Coulter counter.

[6] = system: bovine cartilage explants; test: Proteoglycan loss from interleukin activated bovine cartilage explants; conditions: interleukin stimulated, 5 days
Protocol: Cartilage explants were weighed (average wet weight: 20 mg) incubated in the absence and presence of IL-1 (2 ng/ml) and the inhibitors at various concentrations for 5 days. The tissues were extracted with 1.5 ml of a solution of 4 M guanidinium hydrochloride, 0.1 M ε-aminohexanoid acid, 5 mM benzamidine, 10 mM N-ethylmaleinimide, 0.5 mM phenylmethylsulfonyl fluoride for 3 days at 4° C. The solution was centrifuged for 5 min at 10.000 g and the proteoglycans were determined in the supernatant by the alcian blue method as described (Bjornsson, S., Anal. Biochem., 1993, 210, 282-291).
Bovine cartilage explants were incubated in the absence and presence of interleukin for stimulation of osteoarthritic reactions and the indicated concentrations of the xanthohumol-betaine (FIG. 6A), xanthohumol-prothiazole (FIG. 6B), quercetin-prothiazole (FIG. 6C), quercetin (FIG. 6D) and xanthohumol (FIG. 6E) for 5 days. The cartilage explants were weighed and the proteoglycan concentrations were determined in the cartilage explants (solid bars) and culture supernatants (open bars).

SMILES: O=c1c(O)c(-c2ccc(O)c(O)c2)oc2cc(O)cc(O)c12 [Quercetin, reference compound]
- IC50 [1]: 70 µM
- toxicity in Alamar blue assay [2]: not toxic
- uptake into chondrosarcoma cells (intracellular fluorescence) (chondrosarcoma cells [3]; concentration dependence, FIG. 2A): did not accumulate inside the cells
- IC50 [4]: 16 µM

SMILES: CC(=O)S/C=C\N(C=O)CC(=O)Oc1ccc(-c2oc3cc(O)cc(O)c3c(=O)c2O)cc1O [Quercetin-prothiazole, (Z)-2-hydroxy-4-(3,5,7-trihydroxy-4-oxo-4H-chromen-2-yl)phenyl 2-(N-(2-(acetylthio)vinyl)formamido)acetate]
- IC50 (fibroblasts): 66 µM
- IC50 [1]: 61 µM
- toxicity in Alamar blue assay [2]: not toxic
- uptake into chondrosarcoma cells (intracellular fluorescence) (chondrosarcoma cells [3]): taken up in a concentration dependent manner
- inhibition of chondrosarcoma cell growth (chondrosarcoma cells [5]): more effective at submicromolar concentrations
- IC50 [4]: 8 µM
- inhibition of hyaluronan export [4]: more effective than their parent compound
- inhibition of proteoglycan loss (protective effect) [6]: similarly effective

SMILES: COc1cc(O)c(CC=C(C)C)c(O)c1C(=O)/C=C/c1ccc(OC(=O)CN(C=O)/C=C\SC(C)=O)cc1 [Xanthohumol-prothiazole, 4-((E)-3-(2,4-dihydroxy-6-methoxy-3-(3-methylbut-2-en-1-yl)phenyl)-3-oxoprop-1-en-1-yl)phenyl 2-(N-((Z)-2-(acetylthio)vinyl)formamido)acetate]
- IC50 (fibroblasts): 74 µM
- IC50 [1]: 69 µM
- toxicity in Alamar blue assay [2]: not toxic
- uptake into chondrosarcoma cells (intracellular fluorescence) (chondrosarcoma cells [3]): taken up in a concentration dependent manner
- inhibition of chondrosarcoma cell growth (chondrosarcoma cells [5]): more effective at submicromolar concentrations
- IC50 [4]: 20 µM
- inhibition of hyaluronan export [4]: more effective than their parent compound
- inhibition of proteoglycan loss (protective effect) [6]: similarly effective
